The record followed here is patent US11833162B2, “Macrocyclic derivatives, process for preparing same and pharmaceutical compositions containing same” (LES LABORATOIRES SERVIER, priority 2017, dated 2023).

Broadly, the IC50 is the midpoint of a concentration-inhibition curve.

Structures are written as SMILES. Counter-ions that a name gives are not always drawn. A value given as a limit tells only on which side of the number the result lay.

The target in assay [1] is Bcl-2 protein (histag-Bcl-2, UniProtKB P10415) (Homo sapiens, UniProt P10415). The assay is described as follows: Inhibition of Bcl-2 by the fluorescence polarisation technique. The format is binding. The note with it: for IC50: fluorescence polarisation, 2 hours incubation, read-out: IC50 (μM) Bcl-2 FP; for Bcl-2 FP, % at given concentration: @10 μM. The procedure:
The fluorescence polarisation tests were carried out on microplates (384 wells). The Bcl-2 protein, labelled (histag-Bcl-2 such that Bcl-2 corresponds to the UniProtKB® primary accession number: P10415), at a final concentration of 5×10^−9M, is mixed with a fluorescent peptide (Fluorescein-REIGAQLRRMADDLNAQY), at a final concentration of 1.00×10^−9M in a buffer solution (Hepes 10 mM, NaCl 150 mM, Tween20 0.05%, pH 7.4), in the presence or absence of increasing concentrations of test compounds. After incubation for 2 hours, the fluorescence polarisation is measured.
For orientation: Fluorescence polarisation rises when a labelled molecule tumbles more slowly, as on binding a larger partner.

The subject of assay [2] is RS4; 11 leukaemia tumour line. In words: In vitro cytotoxicity, Microculture Tetrazolium Assay (MTT). It is filed as cell-based. The note with it: Homo sapiens, RS4-11, 48 h, 11 cells, 48 hours exposure. How it is done:
The cytotoxicity studies were carried out on the RS4; 11 leukaemia tumour line.
The cells are distributed onto microplates and exposed to the test compounds for 48 hours.
The cell viability is then quantified by a colorimetric assay, the Microculture Tetrazolium Assay (Cancer Res., 1987, 47, 939-942).

Chain of Bcl-2 protein (P10415 whole entry): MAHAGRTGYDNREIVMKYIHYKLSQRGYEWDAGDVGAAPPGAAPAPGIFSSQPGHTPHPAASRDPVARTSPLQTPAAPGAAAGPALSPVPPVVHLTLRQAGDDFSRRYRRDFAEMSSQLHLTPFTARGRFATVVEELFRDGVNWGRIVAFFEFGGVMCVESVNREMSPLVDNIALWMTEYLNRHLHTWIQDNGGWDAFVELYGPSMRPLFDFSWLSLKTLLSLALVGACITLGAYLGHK

As for `Cc1c2cc(n1C)-c1cc(Cl)ccc1C(=O)N1CCc3c(cccc3OCCOc3c(cnn3C)N(c3ccc(O)cc3)C2=O)C1` [Example 21, 11-Chloro-4-(4-hydroxyphenyl)-1,7,8-trimethyl-1,4,16,17,23,24-hexahydro-14H-15,18-methano-6,9-(metheno)dibenzo[m,s]pyrazolo[3,4-e][1,4,7,11,16]dioxa-triazacycloeicosin-5,14(8H)-dione], the IC50 in assay [1] worked out at 0.0148 µM; in assay [2], 131 nM.

Regarding `Cc1c2cc(n1C)-c1cc(Cl)ccc1C(=O)N1Cc3ccccc3C(COc3ccc(C#N)cc3N(c3ccc(O)cc3)C2=O)C1` (stereo not drawn) [Example 13, 12-Chloro-5-(4-hydroxyphenyl)-8,9-dimethyl-6,15-dioxo-6,9,22,23-tetrahydro-5H,15H,17H-16,22-methano-7,10-(metheno)tribenzo[b,j,o][1,4,8,13]oxa-triazacyclooctadecine-3-carbonitrile], the IC50 in assay [1] was 0.0332 µM; in assay [2], 239 nM.

For `Cc1c2cc(n1C)-c1cc(Cl)ccc1C(=O)N1Cc3cccc(c3CC1CN1CCOCC1)OCCCc1c(cnn1C)N(c1ccc(O)cc1)C2=O` (stereo not drawn) [Example 17, 11-Chloro-4-(4-hydroxyphenyl)-1,7,8-trimethyl-16-(morpholin-4-ylmethyl)-4,16,17,23,24,25-hexahydro-1H,14H-15,18-methano-6,9-(metheno)dibenzo-[b,h]pyrazolo[4,3-p][1,6,11,15]oxatriazacycloicosine-5,14(8H)-dione], the results for the IC50 in assay [1] and in assay [2] were 0.0123 µM and 62.8 nM, respectively.

For `Cc1c2cc(n1C)-c1cc(Cl)ccc1C(=O)N1CCC(CC1)COCCOCCOc1ncc(cn1)N(c1ccc(O)cc1)C2=O` [Example 43, 6-Chloro-14-(4-hydroxyphenyl)-10,11-dimethyl-19,22,25-trioxa-1,10,14,17,32-pentaazapentacyclo[25.2.2.2˜15,18˜. 1˜9,12˜.0˜3,8˜]tetratriaconta-3,5,7,9(34),11,15,17,32-octaene-2,13-dione], in assay [1], the “Bcl-2 FP, % at given concentration” value is given as 34.8% @10 μM. This compound had an IC50 in assay [2] greater than 1880 nM.

As to `Cc1c2cc(n1C)-c1cc(Cl)ccc1C(=O)N1CCc3c(cccc3C1)CCCOc1cc(C#N)cc(c1)N(c1ccc(O)cc1)C2=O` [Example 14, 6-Chloro-14-(4-hydroxyphenyl)-10,11-dimethyl-2,13-dioxo-20-oxa-1,10,14-triazahexacyclo[26.3.1.1˜9,12˜.1˜15,19˜.0˜3,8˜.0˜24,29˜]tetratriaconta-3,5,7,9(34),11,15(33),16,18,24,26,28-undecaene-17-carbonitrile], the values for the IC50 in assay [1] and in assay [2] were 0.0147 µM and 14.6 nM, respectively.

As for `Cc1c2cc(n1C)-c1cc(Cl)ccc1CN1CCc3c(cccc3OCCc3c(cnn3C)N(c3ccc(O)cc3)C2=O)C1` [Example 10, 11-Chloro-4-(4-hydroxyphenyl)-1,7,8-trimethyl-1,4,16,17,23,24-hexahydro-14H-15,18-methano-6,9-(metheno)dibenzo[l,r]pyrazolo[3,4-d]-[1,6,10,15]oxatriazacyclononadecin-5(8H)-one hydrochloride], the values for the IC50 in assay [1] and in assay [2] were 0.299 µM and greater than 300 nM, respectively.

With `Cc1c2cc(n1C)-c1cc(F)ccc1C(=O)N1CCc3c(cccc3OCCOCCOc3ncc(cn3)N(c3ccc(O)cc3)C2=O)C1` [Example 37, 10-Fluoro-2-(4-hydroxyphenyl)-5,6-dimethyl-24,27,30-trioxa-2,6,15,32,35-pentaazahexacyclo[29.2.2.1˜4,7˜.1˜15,19˜.0˜8,13˜.0˜18,23˜]heptatriaconta-1(33),4,7(37),8,10,12,18,20,22,31,34-undecuene-3,14-dione], the IC50 in assay [1] was determined as 0.0102 µM; in assay [2], 49.6 nM.

Turning to `Cc1c2cc(n1C)-c1cc(Cl)ccc1C(=O)N1Cc3cccc(c3C1)OCCOCCOc1ncc(cn1)N(c1ccc(O)cc1)C2=O` [Example 36, 10-Chloro-2-(4-hydroxyphenyl)-5,6-dimethyl-23,26,29-trioxa-2,6,15,31,34-pentaazahexacyclo[28.2.2.1˜4,7˜.1˜15,18˜.0˜8,13˜.0˜17,22˜]hexatriaconta-1(32),4,7(36),8,10,12,17,19,21,30,33-undecaene-3,14-dione], the “Bcl-2 FP, % at given concentration” value in assay [1] was 41.5% @10 μM. This compound also came in with an IC50 in assay [2] greater than 600 nM.

As to `Cc1c2cc(n1C)-c1cc(Cl)ccc1C(=O)N1CCc3c(cccc3OCCCCOc3ncc(cn3)N(c3ccc(O)cc3)C2=O)C1` [Example 41, 10-Chloro-2-(4-hydroxyphenyl)-5,6-dimethyl-24,29-dioxa-2,6,15,31,34-pentaazahexacyclo[28.2.2.1˜4,7˜.1˜15,19˜.0˜8,13˜.0˜18,23˜]hexatriaconta-1(32),4,7(36),8,10,12,18,20,22,30,33-undecaene-3,14-dione], the IC50 was 0.0467 µM in assay [1] and 197 nM in assay [2].

As for `Cc1c2cc(n1C)-c1cc(Cl)ccc1C(=O)N1CCc3c(cccc3OCCOc3cc(C#N)cc(c3)N(c3ccc(O)cc3)C2=O)C1` [Example 4, 6-Chloro-14-(4-hydroxyphenyl)-10,11-dimethyl-2,13-dioxo-20,23-dioxa-1,10,14-triazahexacyclo[26.3.1.1˜9,12˜.1˜5,19˜.0˜3,8˜.0˜24.29˜]tetratriaconta-3,5,7,9(34),11,15(33),16,18,24,26,28-undecaene-17-carbonitrile], the IC50 in assay [1] is 0.0023 µM; in assay [2] it was 7.73 nM.

In the case of `Cc1c2cc(n1C)-c1cc(Cl)ccc1C(=O)N1CCc3c(cccc3OCCOCCN(c3ccc(O)cc3)C2=O)C1` [Example 34, 18-chloro-11-(4-hydroxyphenyl)-14,15-dimethyl-6,7,10,11,23,24-hexahydro-9H,21H-1,22-methano-13,16-(metheno)dibenzo[m,s][1,4,7,11,16]dioxatriaza-cycloicosine-12,21(15H)-dione], the figures for the IC50 in assay [1] and in assay [2] were 0.0693 µM and 1240 nM, respectively.

For `Cc1c2cc(n1C)-c1cc(Cl)ccc1C(=O)N1CCc3c(cccc3OCCCCCCOc3ncc(cn3)N(c3ccc(O)cc3)C2=O)C1` [Example 39, 10-Chloro-2-(4-hydroxyphenyl)-5,6-dimethyl-24,31-dioxa-2,6,15,33,36-pentaazahexacyclo[30.2.2.1˜4,7˜.1˜15,19˜.0˜8,13˜.0˜18,23˜]octatriaconta-1(34),4,7(38),8,10,12,18,20,22,32,35-undecuene-3,14-dione], the IC50 came to 0.0768 µM in assay [1] and 149 nM in assay [2].

For the compound `Cc1c2cc(n1C)-c1cc(Cl)ccc1C(=O)N1CCc3c(cccc3OCCc3c(cnn3C3CCOC3)N(c3ccc(O)cc3)C2=O)C1` (stereo not drawn) [Example 23, 11-Chloro-4-(4-hydroxyphenyl)-7,8-dimethyl-1-(tetrahydrofuran-3-yl)-1,4,16,17,23,24-hexahydro-14H-15,18-methano-6,9-(metheno)dibenzo[l,r]pyrazolo[3,4-d][1,6,10,15]oxatriazacyclononadecine-5,14(8H)-dione], the IC50 in assay [1] is 0.0143 µM; in assay [2], 73.3 nM.

As for `Cc1c2cc(n1C)-c1cc(Cl)ccc1C(=O)N1CCCC(COCCOCCOc3ncc(cn3)N(c3ccc(O)cc3)C2=O)C1` (stereo not drawn) [Example 42, 10-Chloro-2-(4-hydroxyphenyl)-5,6-dimethyl-21,24,27-trioxa-2,6,15,29,32-pentaazapentacyclo[26.2.2.1˜4,7˜.1˜15,19˜.0˜8,13˜]tetratriaconta-1(30),4, 7(34),8,10,12,28,31-octaene-3,14-dione], the “Bcl-2 FP, % at given concentration” value in assay [1] came to 39.2% @10 μM. The compound further displayed a 50% inhibitory concentration (IC50) in assay [2] greater than 600 nM.

With `Cc1c2cc(n1C)-c1cc(Cl)ccc1C(=O)N1CCc3c(cccc3OCCCOc3cc(C#N)cc(c3)N(c3ccc(O)cc3)C2=O)C1` [Example 5, 6-Chloro-14-(4-hydroxyphenyl)-10,11-dimethyl-2,13-dioxo-20,24-dioxa-1,10,14-triazahexacyclo[27.3.1.1˜9,12˜.1˜15,19˜.0˜3,8˜.0˜25,30˜]pentatriaconta-3,5,7,9(35),11,15(34),16,18,25,27,29-undecaene-17-carbonitrile], the IC50 was determined as 0.00205 µM in assay [1] and 21.4 nM in assay [2].

For `Cc1c2cc(n1C)-c1cc(Cl)ccc1C(=O)N1CCc3c(cccc3OCCOc3cccc(c3)N(c3ccc(O)cc3)C2=O)C1` [Example 1, 6-Chloro-14-(4-hydroxyphenyl)-10,11-dimethyl-20,23-dioxa-1,10,14-triazahexacyclo[26.3.1.1˜9,12˜.1˜15,19−.0˜3,8˜.0˜24.29˜]tetratriaconta-3,5,7,9(34),11,15(3.3),16,18,24,26,28-undecaene-2,13-dione], the IC50 turned out to be 0.0067 µM in assay [1] and 107 nM in assay [2].

Turning to `Cc1c2cc(n1C)-c1cc(Cl)ccc1C(=O)N1CCc3c(cccc3OCCOCCOc3ncc(cn3)N(c3ccc(O)cc3)C2=O)C1` [Example 38, 10-Chloro-2-(4-hydroxyphenyl)-5,6-dimethyl-24,27,30-trioxa-2,6,15,32,35-pentaazahexacyclo[29.2.2.1˜4,7˜.1˜15,19˜.0˜8,13˜.0˜18,23˜]heptatriaconta-1(33),4,7(37), 8,10,12,18,20,22,31,34-undecuene-3,14-dione], the IC50 in assay [1] is 0.00385 µM; in assay [2], 23.1 nM.

As to `Cc1c2cc(n1C)-c1cc(Cl)ccc1C(=O)N1CCc3c(cccc3OCCCCOc3cccc(c3)N(c3ccc(O)cc3)C2=O)C1` [Example 3, 6-Chloro-14-(4-hydroxyphenyl)-10,11-dimethyl-20,25-dioxa-1,10,14-triazahexacyclo[28.3.1.1˜9,12˜.1˜15,19˜.0˜3,8˜.0˜26,31˜]hexatriaconta-3,5,7,9(36),11,15(35),16,18,26,28,30-undecaene-L 3-dione], the IC50 in assay [1] came to 0.0655 µM; in assay [2] it was 749 nM.
